Laboratory results as given in ChEMBL document CHEMBL1201862, “PubChem BioAssay data set” (2004).
Calls of active or inactive are those of the source.

Tests used:
[1] = molecular target: T1, Protein Tat (Human immunodeficiency virus type 1 group M subtype B (isolate HXB2)(HIV-1), UniProt P04608); assay type: functional;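 further: tat binding to TAR RNA read out by fluorescence polarization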
T1 sequence (P04608 whole entry): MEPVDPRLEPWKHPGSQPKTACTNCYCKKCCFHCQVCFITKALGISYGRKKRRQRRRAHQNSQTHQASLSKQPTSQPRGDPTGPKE

[2] = molecular target: T2, DNA repair protein RAD52 homolog (Homo sapiens, UniProt P43351); assay type: functional, biochemical
T2 sequence (P43351 whole entry): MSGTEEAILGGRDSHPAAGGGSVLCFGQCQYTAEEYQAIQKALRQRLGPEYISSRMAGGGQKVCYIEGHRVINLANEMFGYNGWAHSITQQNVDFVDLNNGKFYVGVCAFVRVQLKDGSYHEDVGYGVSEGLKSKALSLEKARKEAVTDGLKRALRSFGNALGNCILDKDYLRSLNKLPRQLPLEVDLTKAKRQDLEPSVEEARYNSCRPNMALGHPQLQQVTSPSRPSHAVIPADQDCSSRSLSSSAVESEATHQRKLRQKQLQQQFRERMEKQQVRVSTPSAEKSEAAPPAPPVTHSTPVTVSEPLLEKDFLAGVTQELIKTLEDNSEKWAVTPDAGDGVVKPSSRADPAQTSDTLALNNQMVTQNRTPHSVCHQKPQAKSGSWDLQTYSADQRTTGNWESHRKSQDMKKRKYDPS

[3] = molecular target: Glutathione-S-transferase (Schistosoma japonicum, UniProt Q26513); experiment: biotin-GST/anti-GST TR-FRET signal inhibitors, dose response, artefact control for Vif-APOBEC3G degradation inhibitor project, biochemical (AID 1117362); assay type: functional
[4] = molecular target: T3, Fibrinogen beta chain (Homo sapiens, UniProt P02675); experiment: Fluorescence polarization-based biochemical high throughput dose response assay to identify inhibitors that disrupt the binding of a cyclic peptide (Tn7) to the fibrin proteolytic product D-Dimer and fragment E complex [DD(E )].
[5] = molecular target: T3, Fibrinogen beta chain; experiment: Fluorescence polarization-based biochemical high throughput dose response assay to identify inhibitors that disrupt the binding of a cyclic peptide (Tn6) to the fibrin proteolytic product D-Dimer and fragment E complex [DD(E )].
[6] = molecular target: Matrix metalloproteinase-14 (Homo sapiens, UniProt P50281); experiment: Dose Response confirmation of uHTS hits for a small molecule inhibitors of MT1-MMP activation in a fluorescence assay set 1.; assay type: functional
[7] = HeLa cell cytotoxicity, dose response, cytotoxicity control for MgcRacGAP inhibitor project (AID 624300); assay type: functional
[8] = molecular target: T4, Rac GTPase-activating protein 1 (Homo sapiens, UniProt Q9H0H5); experiment: MgcRacGAP GTPase-activating activity inhibitors, confirmation, biochemical, ADP Hunter fluorescence, primary and confirmatory (AID 624330); assay type: functional
T4 sequence (Q9H0H5 whole entry): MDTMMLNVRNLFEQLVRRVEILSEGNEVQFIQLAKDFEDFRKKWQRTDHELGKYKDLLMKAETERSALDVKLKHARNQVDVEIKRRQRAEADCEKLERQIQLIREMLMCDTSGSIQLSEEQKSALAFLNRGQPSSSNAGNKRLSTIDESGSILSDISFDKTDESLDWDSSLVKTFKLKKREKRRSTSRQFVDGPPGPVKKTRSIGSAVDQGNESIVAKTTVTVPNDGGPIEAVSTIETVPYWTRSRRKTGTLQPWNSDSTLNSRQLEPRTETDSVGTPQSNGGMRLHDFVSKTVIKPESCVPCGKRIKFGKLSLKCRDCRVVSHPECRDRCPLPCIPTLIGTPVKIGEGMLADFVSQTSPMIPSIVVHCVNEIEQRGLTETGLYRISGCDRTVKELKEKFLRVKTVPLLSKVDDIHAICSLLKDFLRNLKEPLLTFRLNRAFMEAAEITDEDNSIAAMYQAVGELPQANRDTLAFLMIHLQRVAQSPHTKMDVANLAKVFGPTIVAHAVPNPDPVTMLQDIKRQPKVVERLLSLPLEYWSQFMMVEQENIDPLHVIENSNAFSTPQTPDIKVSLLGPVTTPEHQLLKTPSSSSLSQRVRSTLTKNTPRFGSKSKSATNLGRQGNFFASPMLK

[9] = molecular target: T5, Histone-lysine N-methyltransferase NSD2 (Homo sapiens, UniProt O96028); assay type: biochemical
T5 sequence (O96028 whole entry): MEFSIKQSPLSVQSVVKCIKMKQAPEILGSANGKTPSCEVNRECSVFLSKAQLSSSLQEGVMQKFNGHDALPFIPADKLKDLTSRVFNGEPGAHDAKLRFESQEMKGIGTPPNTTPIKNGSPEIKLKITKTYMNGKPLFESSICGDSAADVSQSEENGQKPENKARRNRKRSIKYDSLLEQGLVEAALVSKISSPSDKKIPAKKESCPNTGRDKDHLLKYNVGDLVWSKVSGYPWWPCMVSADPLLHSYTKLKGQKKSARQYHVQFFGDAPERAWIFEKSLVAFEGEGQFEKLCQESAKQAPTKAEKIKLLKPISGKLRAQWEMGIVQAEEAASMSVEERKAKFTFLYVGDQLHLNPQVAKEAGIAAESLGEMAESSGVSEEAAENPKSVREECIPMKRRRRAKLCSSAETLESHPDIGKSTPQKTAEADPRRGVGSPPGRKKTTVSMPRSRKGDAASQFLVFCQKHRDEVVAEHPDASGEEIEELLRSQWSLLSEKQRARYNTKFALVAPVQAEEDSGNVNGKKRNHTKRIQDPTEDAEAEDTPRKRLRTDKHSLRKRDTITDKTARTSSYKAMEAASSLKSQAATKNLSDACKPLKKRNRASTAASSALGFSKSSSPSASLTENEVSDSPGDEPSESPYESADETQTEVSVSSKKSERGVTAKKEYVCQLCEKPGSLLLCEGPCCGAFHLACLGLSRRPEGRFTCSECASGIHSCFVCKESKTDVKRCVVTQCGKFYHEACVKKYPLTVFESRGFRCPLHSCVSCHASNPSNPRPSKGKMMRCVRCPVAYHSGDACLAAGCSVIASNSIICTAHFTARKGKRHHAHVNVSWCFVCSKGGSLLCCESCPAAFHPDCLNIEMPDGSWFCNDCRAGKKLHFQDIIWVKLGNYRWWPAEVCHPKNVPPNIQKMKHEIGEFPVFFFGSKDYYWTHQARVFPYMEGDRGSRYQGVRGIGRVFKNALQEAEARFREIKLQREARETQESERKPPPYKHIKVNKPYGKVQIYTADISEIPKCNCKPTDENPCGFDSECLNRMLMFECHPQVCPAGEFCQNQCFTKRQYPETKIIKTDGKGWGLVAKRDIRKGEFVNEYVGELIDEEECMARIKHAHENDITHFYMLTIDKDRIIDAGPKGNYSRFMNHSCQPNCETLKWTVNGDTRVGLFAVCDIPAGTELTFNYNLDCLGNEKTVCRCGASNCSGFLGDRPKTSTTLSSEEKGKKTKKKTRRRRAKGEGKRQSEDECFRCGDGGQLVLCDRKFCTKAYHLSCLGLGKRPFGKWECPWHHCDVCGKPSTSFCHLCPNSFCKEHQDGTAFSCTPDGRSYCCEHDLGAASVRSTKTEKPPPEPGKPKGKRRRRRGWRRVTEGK

[10] = molecular target: Nonstructural protein 1 (Influenza A virus, UniProt Q194T2); assay type: functional, Influenza A virus (A/California/07/2009(H1N1))
[11] = Luminescence Cell-Based Dose Response HTS to Identify Activators of Luciferase Translation or Activity in H4 […] Cells. [Related pubchem assays: 1829 (Project Summary), 1814 (Primary HTS)]; assay type: functional
[12] = Artemis endonuclease inhibitor potency, dose response, biochemical, fluorescence intensity (AID 720701); assay type: functional;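 further: Artemis endonuclease enzyme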
[13] = NIH:OVCAR-3 ovarian cancer cell cytotoxicity, dose response, PAX8 inhibitor project, plate reader, dry powder samples (AID 743044); assay type: functional, cell-based
[14] = cytotoxicity in COV362 ovarian cancer cells, dose response, cytotoxicity control for PAX8 inhibitor project, cell-based, plate reader, dry powder, SA12 (AID 743144); assay type: functional
[15] = cytotoxicity dependent on PAX8, dose response, cell-based, plate reader, dry powder (AID 743049); assay type: functional
[16] = cytotoxicity in OVCAR4 cells, dose response, cytotoxicity control for PAX8 inhibitor project, cell-based, plate reader, dry powder, SA11 (AID 743150); assay type: functional; settings: OVCAR-4
[17] = cytotoxicity in OVCAR8 ovarian cancer cells, dose response, PAX8 project, cell-based, plate reader, dry powder samples (AID 743197); assay type: functional; settings: OVCAR-8
[18] = molecular target: Paired box protein Pax-8 (Homo sapiens, UniProt Q06710); experiment: inhibitors of PAX8-driven TPO luciferase reporter, dose response, RMG-I cells, cherry-pick (AID 687027); assay type: functional, cell-based;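 further: luciferase reporter driven by Pax8 target thyroperoxidase promoter measured by SteadyGlo luminescence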
[19] = cytotoxicity in COV434 cells, dose response, cytotoxicity control for PAX8 inhibitor project, cell-based, plate reader, dry powder, SA7 (AID 743145); assay type: functional
[20] = PAX5 activity inhibitors, dose response, selectivity assay for PAX8 inhibitor project, cell-based, plate reader, dry powder samples (AID 743047); assay type: functional;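 further: HEK293 cells carrying a Pax5 driven CD19 promoter luciferase reporter; potency of inhibitors that lower reporter luminescence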
[21] = PAX2 cell-based inhibition, dose response, selectivity assay for PAX8 inhibitor project, plate reader, dry powder samples (AID 743048); assay type: functional;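 further: HEK293 cells carrying a WT1 promoter luciferase reporter driven by expressed Pax2; potency is for inhibition of Pax2 driven reporter signal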
[22] = cytotoxicity in OV-90 ovarian cancer cells, dose response, PAX8 inhibitor project, cell-based, plate reader, dry powder, SA8 (AID 743149); assay type: functional

T3 sequence (P02675 whole entry, the tested form may be a part): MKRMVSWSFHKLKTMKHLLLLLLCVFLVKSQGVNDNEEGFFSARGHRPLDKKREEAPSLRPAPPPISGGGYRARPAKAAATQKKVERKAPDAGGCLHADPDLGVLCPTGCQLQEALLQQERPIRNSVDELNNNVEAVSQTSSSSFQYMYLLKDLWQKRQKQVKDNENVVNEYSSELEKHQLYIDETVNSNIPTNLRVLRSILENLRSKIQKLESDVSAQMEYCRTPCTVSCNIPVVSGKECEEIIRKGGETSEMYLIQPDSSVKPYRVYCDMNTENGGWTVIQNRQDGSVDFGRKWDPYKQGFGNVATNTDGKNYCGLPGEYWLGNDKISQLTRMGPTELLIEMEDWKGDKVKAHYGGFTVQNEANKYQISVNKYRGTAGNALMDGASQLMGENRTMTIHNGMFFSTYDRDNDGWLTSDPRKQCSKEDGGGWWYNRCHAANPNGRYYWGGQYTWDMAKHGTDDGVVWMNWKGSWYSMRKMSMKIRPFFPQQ
Chain of Paired box protein Pax-8 (Q06710 whole entry): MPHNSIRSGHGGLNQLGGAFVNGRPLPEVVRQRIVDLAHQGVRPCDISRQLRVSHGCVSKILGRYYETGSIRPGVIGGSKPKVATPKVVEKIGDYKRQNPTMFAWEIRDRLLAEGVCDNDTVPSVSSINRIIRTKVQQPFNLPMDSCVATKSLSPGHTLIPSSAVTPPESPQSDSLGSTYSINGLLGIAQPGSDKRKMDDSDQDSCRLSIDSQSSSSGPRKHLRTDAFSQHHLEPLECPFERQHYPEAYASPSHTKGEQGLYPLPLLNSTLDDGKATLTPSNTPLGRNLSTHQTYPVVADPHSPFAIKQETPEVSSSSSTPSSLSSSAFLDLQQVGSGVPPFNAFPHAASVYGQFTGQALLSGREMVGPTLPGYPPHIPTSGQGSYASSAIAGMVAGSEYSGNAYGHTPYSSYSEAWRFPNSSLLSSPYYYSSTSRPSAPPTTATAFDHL
Chain of Nonstructural protein 1 (Q194T2 whole entry): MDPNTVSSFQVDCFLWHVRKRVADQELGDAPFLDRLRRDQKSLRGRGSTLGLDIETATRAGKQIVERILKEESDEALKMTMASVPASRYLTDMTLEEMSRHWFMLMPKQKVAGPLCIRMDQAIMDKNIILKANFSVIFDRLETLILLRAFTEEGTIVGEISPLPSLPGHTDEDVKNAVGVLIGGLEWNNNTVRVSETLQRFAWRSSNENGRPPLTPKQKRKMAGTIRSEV
Chain of Glutathione-S-transferase (Q26513 whole entry, the tested form may be a part): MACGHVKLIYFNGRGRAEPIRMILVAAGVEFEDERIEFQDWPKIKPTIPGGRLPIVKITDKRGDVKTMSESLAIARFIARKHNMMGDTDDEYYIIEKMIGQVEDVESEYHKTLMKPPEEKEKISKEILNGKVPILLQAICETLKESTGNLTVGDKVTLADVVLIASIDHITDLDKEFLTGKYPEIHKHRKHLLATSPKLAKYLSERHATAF

Nc1ccc(N2CCN(CCCCN3C(=O)C4CCCN4C3=O)CC2)cc1 (stereo not drawn)
IC50 [1]: > 100 µM (active) | AC50 [2]: 1.29 µM (active) | IC50 [3]: 3.15 µM (active)

O=C1c2cccc(NCCCNCCO)c2C(=O)c2cccc(NCCCNCCO)c21
IC50 [4]: > 83.3 µM (inactive) | IC50 [5]: 9.1 µM (active) | IC50 [6]: 38 µM (inactive) | CC50 [7]: 25.6 µM (active) | IC50 [8]: 27.8 µM (active) | AC50 [9]: 3.53 µM (active) | AC50 [2]: < 0.15 µM (active) | IC50 [10]: 10.1 µM (active)

Nc1ccc2[nH]c(-c3ccccn3)nc2c1
EC50 [11]: 24.6 µM (active) | IC50 [12]: 16.7 µM (active)

N#C[C@H]1[C@@H](c2ccc(C#Cc3ccc(F)cc3)cc2)[C@H](CO)N1C(=O)C1CCCC1
AC50 [13]: 34.5 µM (active) | AC50 [14]: 33.3 µM (active) | AC50 [15]: 18.6 µM (active) | AC50 [16]: > 70 µM (inactive) | AC50 [17]: > 70 µM (inactive) | AC50 [18]: 13.4 µM (active) | AC50 [19]: 26.2 µM (active) | AC50 [20]: 8.42 µM (active) | AC50 [21]: 9.19 µM (active) | AC50 [22]: 26.5 µM (active)
